The results in this text go back to ChEMBL document CHEMBL3352819, “Structure-based optimization and biological evaluation of trisubstituted pyrazole as a core structure of potent ROS1 kinase inhibitors” (Bioorg Med Chem, 2014).

Experiment [1] concerns the target Proto-oncogene tyrosine-protein kinase ROS (Homo sapiens, UniProt P08922). Nature of the experiment: Inhibition of ROS1 (unknown origin) assessed as remaining activity.
Experiment [2] concerns the target Phosphatidylinositol 4,5-bisphosphate 3-kinase catalytic subunit alpha isoform (Homo sapiens) (UniProt P42336). Description: Inhibition of PIK3CA (unknown origin) assessed as residual activity at 10 uM relative to control.
Experiment [3] deals with Mitogen-activated protein kinase kinase kinase 20 (Homo sapiens) (UniProt Q9NYL2). Description: Inhibition of ZAK (unknown origin) assessed as residual activity at 10 uM relative to control.
The target of experiment [4] is Ephrin type-B receptor 6 (Homo sapiens) (UniProt O15197). Description: Inhibition of EPHB6 (unknown origin) assessed as residual activity at 10 uM relative to control.
Experiment [5] addresses Aurora kinase A (Homo sapiens) (UniProt O14965). Nature of the experiment: Inhibition of aurora A kinase (unknown origin) assessed as residual activity at 10 uM relative to control.
For experiment [6], the target named is BMP-2-inducible protein kinase (Homo sapiens) (UniProt Q9NSY1). Description: Inhibition of BIKE (unknown origin) assessed as residual activity at 10 uM relative to control.
The target of experiment [7] is Tyrosine-protein kinase JAK2 (Homo sapiens) (UniProt O60674). Description: Inhibition of JAK2 (unknown origin) assessed as residual activity at 10 uM relative to control.
Tyrosine-protein kinase JAK2 (Homo sapiens), sequence (O60674 whole entry): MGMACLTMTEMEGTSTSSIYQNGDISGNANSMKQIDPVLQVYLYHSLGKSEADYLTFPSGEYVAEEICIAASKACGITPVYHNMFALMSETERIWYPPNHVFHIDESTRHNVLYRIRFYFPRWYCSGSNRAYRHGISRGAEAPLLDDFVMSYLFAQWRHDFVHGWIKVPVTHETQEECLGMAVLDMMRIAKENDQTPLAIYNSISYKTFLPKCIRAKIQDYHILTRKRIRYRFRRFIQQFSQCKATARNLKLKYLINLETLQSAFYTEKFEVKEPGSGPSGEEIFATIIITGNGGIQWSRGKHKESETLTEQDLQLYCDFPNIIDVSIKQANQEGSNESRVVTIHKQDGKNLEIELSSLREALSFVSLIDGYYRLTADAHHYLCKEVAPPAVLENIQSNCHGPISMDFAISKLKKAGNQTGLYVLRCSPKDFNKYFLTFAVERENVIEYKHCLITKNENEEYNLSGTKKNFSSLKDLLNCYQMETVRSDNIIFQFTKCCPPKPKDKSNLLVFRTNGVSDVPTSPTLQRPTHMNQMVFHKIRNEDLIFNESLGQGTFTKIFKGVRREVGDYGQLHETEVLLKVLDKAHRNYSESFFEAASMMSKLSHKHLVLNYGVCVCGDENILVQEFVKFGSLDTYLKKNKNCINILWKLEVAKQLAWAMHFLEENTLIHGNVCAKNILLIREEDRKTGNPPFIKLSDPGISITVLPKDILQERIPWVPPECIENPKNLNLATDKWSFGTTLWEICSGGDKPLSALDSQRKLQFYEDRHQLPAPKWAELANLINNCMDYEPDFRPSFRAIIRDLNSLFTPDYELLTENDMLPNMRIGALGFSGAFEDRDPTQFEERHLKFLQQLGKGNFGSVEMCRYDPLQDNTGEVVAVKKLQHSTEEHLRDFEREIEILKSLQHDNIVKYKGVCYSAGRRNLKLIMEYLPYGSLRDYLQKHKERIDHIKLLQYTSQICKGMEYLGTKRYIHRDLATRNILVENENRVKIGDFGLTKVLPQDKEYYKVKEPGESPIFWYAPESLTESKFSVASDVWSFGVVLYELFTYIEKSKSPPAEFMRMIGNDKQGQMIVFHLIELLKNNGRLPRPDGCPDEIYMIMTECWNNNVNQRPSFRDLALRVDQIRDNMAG
Experiment [8] concerns the target Hepatocyte growth factor receptor (Homo sapiens) (UniProt P08581). Nature of the experiment: Inhibition of c-MET (unknown origin) assessed as residual activity at 20 uM relative to control.
Experiment [9] has as its target Phosphatidylinositol 4-phosphate 3-kinase C2 domain-containing subunit beta (Homo sapiens) (UniProt O00750). Nature of the experiment: Inhibition of PIK3C2B (unknown origin) assessed as residual activity at 10 uM relative to control.
The subject of experiment [10] is Serine/threonine-protein kinase B-raf (Homo sapiens), P15056 [V600E]. Nature of the experiment: Inhibition of BRAF V600E mutant (unknown origin) assessed as residual activity at 10 uM relative to control.
Experiment [11] addresses Atypical kinase COQ8A, mitochondrial (Homo sapiens) (UniProt Q8NI60). Description: Inhibition of ADCK3 (unknown origin) assessed as residual activity at 10 uM relative to control.
Experiment [12] addresses Serine/threonine-protein kinase RIO2 (Homo sapiens) (UniProt Q9BVS4). Nature of the experiment: Inhibition of RIOK2 (unknown origin) assessed as residual activity at 10 uM relative to control.
Experiment [13] deals with Receptor-type tyrosine-protein kinase FLT3 (Homo sapiens) (UniProt P36888). Description: Inhibition of FLT3 (unknown origin) assessed as residual activity at 10 uM relative to control.
Experiment [14] deals with Tyrosine-protein kinase TXK (Homo sapiens) (UniProt P42681). Nature of the experiment: Inhibition of TXK (unknown origin) assessed as residual activity at 10 uM relative to control.
For the next experiment, the species on record is Homo sapiens. Nature of the experiment: Inhibition of ULK (unknown origin) assessed as residual activity at 10 uM relative to control.
The target in experiment [15] is AP2-associated protein kinase 1 (Homo sapiens) (UniProt Q2M2I8). Description: Inhibition of AAK1 (unknown origin) assessed as residual activity at 10 uM relative to control.
The test system of experiment [16] is Receptor-type tyrosine-protein kinase FLT3 (Homo sapiens), P36888 [N841I]. Description: Inhibition of FLT3 N841I mutant (unknown origin) assessed as residual activity at 10 uM relative to control.
The target of experiment [17] is Proto-oncogene tyrosine-protein kinase Src (Homo sapiens) (UniProt P12931). Description: Inhibition of SRC (unknown origin) assessed as residual activity at 10 uM relative to control.
For experiment [18], the target named is ALK tyrosine kinase receptor (Homo sapiens) (UniProt Q9UM73). Description: Inhibition of ALK (unknown origin) assessed as residual activity at 20 uM relative to control.
Experiment [19] addresses Tyrosine-protein kinase Blk (Homo sapiens) (UniProt P51451). Description: Inhibition of BLK (unknown origin) assessed as residual activity at 10 uM relative to control.
For experiment [20], the system named is Phosphatidylinositol 4,5-bisphosphate 3-kinase catalytic subunit alpha isoform (Homo sapiens), P42336 [E542K]. Description: Inhibition of PIK3CA E542K mutant (unknown origin) assessed as residual activity at 10 uM relative to control.
For experiment [21], the target named is Phosphatidylinositol 4,5-bisphosphate 3-kinase catalytic subunit delta isoform (Homo sapiens) (UniProt O00329). Nature of the experiment: Inhibition of PIK3CD (unknown origin) assessed as residual activity at 10 uM relative to control.
In experiment [22] the target is Phosphatidylinositol 4,5-bisphosphate 3-kinase catalytic subunit beta isoform (Homo sapiens) (UniProt P42338). Description: Inhibition of PIK3CB (unknown origin) assessed as residual activity at 10 uM relative to control.
Experiment [23] deals with Non-receptor tyrosine-protein kinase TNK1 (Homo sapiens) (UniProt Q13470). Description: Inhibition of TNK1 (unknown origin) assessed as residual activity at 10 uM relative to control.
In experiment [24] the target is Non-receptor tyrosine-protein kinase TYK2 (Homo sapiens) (UniProt P29597). Description: Inhibition of TYK2 JH1 domain catalytic (unknown origin) assessed as residual activity at 10 uM relative to control.
Experiment [25] has as its target Mast/stem cell growth factor receptor Kit (Homo sapiens) (UniProt P10721). Description: Inhibition of KIT (unknown origin) assessed as residual activity at 10 uM relative to control.
For experiment [26], the target named is Leukocyte tyrosine kinase receptor (Homo sapiens) (UniProt P29376). Nature of the experiment: Inhibition of LTK (unknown origin) assessed as residual activity at 10 uM relative to control.
Experiment [27] has as its target Serine/threonine-protein kinase B-raf (Homo sapiens) (UniProt P15056). Nature of the experiment: Inhibition of BRAF (unknown origin) assessed as residual activity at 10 uM relative to control.
For experiment [28], the target named is Serine/threonine-protein kinase PLK4 (Homo sapiens) (UniProt O00444). Nature of the experiment: Inhibition of PLK4 (unknown origin) assessed as residual activity at 10 uM relative to control.
The target in experiment [29] is Tyrosine-protein kinase HCK (Homo sapiens) (UniProt P08631). Description: Inhibition of HCK (unknown origin) assessed as residual activity at 10 uM relative to control.

The structures appear in SMILES notation.

Proto-oncogene tyrosine-protein kinase ROS, sequence (P08922 whole entry, canonical isoform): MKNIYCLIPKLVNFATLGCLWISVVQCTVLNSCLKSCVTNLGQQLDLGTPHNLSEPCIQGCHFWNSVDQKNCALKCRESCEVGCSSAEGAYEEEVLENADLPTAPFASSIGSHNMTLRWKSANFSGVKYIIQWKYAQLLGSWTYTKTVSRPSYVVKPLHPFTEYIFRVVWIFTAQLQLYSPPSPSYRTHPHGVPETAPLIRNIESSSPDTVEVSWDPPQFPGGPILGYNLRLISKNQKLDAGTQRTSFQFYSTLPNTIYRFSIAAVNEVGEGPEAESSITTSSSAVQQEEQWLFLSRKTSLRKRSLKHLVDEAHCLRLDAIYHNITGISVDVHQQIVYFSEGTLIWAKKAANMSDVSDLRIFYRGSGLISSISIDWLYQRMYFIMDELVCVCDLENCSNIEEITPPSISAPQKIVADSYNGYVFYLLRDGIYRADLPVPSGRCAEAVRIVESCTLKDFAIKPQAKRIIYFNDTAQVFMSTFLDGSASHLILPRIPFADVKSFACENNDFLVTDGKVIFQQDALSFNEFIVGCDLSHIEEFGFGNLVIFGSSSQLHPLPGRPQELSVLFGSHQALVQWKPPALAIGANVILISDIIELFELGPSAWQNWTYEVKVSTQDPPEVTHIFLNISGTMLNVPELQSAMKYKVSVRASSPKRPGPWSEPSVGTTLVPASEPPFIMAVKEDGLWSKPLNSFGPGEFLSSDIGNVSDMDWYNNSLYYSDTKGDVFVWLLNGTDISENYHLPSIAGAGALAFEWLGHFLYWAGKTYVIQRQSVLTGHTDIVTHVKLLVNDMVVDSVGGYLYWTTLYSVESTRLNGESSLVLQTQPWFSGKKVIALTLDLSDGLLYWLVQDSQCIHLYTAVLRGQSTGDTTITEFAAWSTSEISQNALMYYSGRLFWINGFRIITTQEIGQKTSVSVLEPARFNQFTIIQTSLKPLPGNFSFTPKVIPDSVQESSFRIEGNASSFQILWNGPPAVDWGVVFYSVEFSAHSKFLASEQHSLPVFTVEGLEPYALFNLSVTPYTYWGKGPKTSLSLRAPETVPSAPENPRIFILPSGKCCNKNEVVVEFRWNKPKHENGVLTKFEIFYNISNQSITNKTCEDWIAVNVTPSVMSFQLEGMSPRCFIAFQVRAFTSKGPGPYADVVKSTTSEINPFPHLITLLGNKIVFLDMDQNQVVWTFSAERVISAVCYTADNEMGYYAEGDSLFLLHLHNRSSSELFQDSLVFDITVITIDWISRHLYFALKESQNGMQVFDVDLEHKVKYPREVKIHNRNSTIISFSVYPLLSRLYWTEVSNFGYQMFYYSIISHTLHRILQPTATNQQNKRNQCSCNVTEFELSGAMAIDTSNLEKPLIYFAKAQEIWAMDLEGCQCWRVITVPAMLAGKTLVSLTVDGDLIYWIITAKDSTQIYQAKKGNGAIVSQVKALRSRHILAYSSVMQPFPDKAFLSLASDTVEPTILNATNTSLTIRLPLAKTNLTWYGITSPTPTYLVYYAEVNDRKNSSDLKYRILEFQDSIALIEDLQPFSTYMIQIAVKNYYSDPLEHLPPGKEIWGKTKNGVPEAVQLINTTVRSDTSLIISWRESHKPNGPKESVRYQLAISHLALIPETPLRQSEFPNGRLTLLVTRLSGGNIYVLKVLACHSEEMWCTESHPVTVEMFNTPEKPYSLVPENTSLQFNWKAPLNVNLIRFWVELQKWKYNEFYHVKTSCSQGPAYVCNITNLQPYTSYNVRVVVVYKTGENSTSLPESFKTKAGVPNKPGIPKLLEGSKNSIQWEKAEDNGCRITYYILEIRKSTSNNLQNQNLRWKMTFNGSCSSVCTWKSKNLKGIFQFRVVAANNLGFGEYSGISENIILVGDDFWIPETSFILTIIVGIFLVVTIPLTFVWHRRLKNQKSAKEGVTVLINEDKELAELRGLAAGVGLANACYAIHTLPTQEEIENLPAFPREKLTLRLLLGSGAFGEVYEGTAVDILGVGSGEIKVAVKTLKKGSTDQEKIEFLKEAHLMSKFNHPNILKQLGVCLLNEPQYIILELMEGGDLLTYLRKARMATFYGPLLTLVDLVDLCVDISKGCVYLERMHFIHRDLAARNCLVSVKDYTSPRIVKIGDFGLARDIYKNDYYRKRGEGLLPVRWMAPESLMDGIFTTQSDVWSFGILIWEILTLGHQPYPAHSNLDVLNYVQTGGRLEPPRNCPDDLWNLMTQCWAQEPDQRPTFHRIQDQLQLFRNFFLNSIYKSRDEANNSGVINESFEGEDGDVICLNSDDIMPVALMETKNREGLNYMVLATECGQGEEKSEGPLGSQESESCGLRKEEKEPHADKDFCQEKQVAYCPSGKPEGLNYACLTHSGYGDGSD
Serine/threonine-protein kinase B-raf (Homo sapiens), P15056 [V600E], sequence (P15056 whole entry V600E): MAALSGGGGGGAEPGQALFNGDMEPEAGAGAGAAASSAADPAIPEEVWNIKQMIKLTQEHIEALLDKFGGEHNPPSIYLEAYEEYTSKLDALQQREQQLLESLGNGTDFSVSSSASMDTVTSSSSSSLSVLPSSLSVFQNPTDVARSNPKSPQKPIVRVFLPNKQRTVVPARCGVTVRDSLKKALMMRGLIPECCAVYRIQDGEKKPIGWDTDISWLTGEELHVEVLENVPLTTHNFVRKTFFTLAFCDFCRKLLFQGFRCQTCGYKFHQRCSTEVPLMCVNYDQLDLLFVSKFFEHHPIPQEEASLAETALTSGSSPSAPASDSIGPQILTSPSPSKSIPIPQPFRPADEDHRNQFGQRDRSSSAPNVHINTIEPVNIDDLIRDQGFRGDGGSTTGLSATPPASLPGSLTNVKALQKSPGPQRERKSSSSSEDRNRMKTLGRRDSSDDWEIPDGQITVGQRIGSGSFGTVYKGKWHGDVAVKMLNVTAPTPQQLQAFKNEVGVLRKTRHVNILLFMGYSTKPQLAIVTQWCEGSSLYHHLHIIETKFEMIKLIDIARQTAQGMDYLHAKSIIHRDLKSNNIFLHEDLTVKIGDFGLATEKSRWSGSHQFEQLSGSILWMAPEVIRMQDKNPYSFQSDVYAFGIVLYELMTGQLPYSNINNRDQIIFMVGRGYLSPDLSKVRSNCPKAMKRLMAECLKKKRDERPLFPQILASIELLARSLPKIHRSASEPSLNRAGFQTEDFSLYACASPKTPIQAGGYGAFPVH
Aurora kinase A (Homo sapiens), sequence (O14965 whole entry): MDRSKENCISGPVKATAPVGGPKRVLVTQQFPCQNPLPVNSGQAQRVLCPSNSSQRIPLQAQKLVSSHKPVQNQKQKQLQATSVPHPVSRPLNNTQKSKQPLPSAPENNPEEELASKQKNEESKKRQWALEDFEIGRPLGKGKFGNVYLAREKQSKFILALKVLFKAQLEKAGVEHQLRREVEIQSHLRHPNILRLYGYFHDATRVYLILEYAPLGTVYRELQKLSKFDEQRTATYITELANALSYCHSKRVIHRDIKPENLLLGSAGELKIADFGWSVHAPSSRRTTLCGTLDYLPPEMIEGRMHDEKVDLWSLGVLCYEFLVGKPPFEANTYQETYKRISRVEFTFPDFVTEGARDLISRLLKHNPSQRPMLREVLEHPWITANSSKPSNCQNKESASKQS
Serine/threonine-protein kinase B-raf (Homo sapiens), sequence (P15056 whole entry): as the sequence (P15056 whole entry V600E) above, with E600V counted along it

With `COc1cc(C)cc(-c2c(-c3cc(NCCCCO)nc(-c4cccnc4)n3)cnn2C)c1`, in experiment [1], the IC50 amounted to 138 nM.

Turning to `COc1cc(C)cc(-c2c(-c3cc(N4CC(O)C4)nc(-c4cccnc4)n3)cnn2C)c1`, the IC50 in experiment [1] stood at 74.2 nM.

As to `COc1cc(C)cc(-c2c(-c3cc(N4CCOCC4)nc(-c4cccnc4)n3)cnn2C)c1`, the IC50 in [1] was 104 nM.

Consider `COc1cc(C)cc(-c2nn(C)cc2-c2cc(N3CCOCC3)nc(-c3cccnc3)n2)c1`, for which the IC50 in [1] is 59.1 nM.

Regarding `Cc1cc(O)cc(-c2nn(C)cc2-c2cc(N3CCOCC3)nc(-c3cccnc3)n2)c1`, the Activity in experiment [2] was 13%; in experiment [3], 92%; in experiment [4], 4.2%; in experiment [5], 31%; in [6], 11%; in experiment [7], 3%. Moreover, the Activity in [8] came to 51%; in [9], 4%; in [10], 18%; in experiment [11], 15%; in [12], 10%; in experiment [13], 3%. The Activity in experiment [14] amounted to 9.6%; in the experiment filed under Homo sapiens it was 71%; in experiment [15] it was 18%; in [16] it was 3.3%; in experiment [17], 25%; in experiment [18] it was 31%. In addition, the Activity is 20% in [19]; 14% in [20]; 4.4% in experiment [21]; 7.2% in experiment [22]; 9.2% in experiment [23]; 2.6% in experiment [24]. Besides, the Activity is 20% in experiment [25]; 17% in [26]; 30% in experiment [27]; 6.8% in experiment [28]; 28% in [29]. In addition, in experiment [1], the IC50 was determined as 13.6 nM.

Turning to `COc1cc(C)cc(-c2c(-c3cc(NC[C@H](C)O)nc(-c4cccnc4)n3)cnn2C)c1`, the IC50 in [1] amounted to 283 nM.

`Cc1cc(O)cc(-c2c(-c3cc(N4CC(O)C4)nc(-c4cccnc4)n3)cnn2C)c1`: the IC50 in [1] stood at 56.6 nM.

For `Cc1cc(O)cc(-c2nn(C)cc2-c2cc(NC[C@H](C)O)nc(-c3cccnc3)n2)c1`, the IC50 in experiment [1] came out at 105 nM.

In the case of `Cc1cc(O)cc(-c2nn(C)cc2-c2cc(NCCCCO)nc(-c3cccnc3)n2)c1`, the IC50 in experiment [1] amounted to 133 nM.

Consider `Cc1cc(O)cc(-c2c(-c3cc(NCCCCO)nc(-c4cccnc4)n3)cnn2C)c1`, for which, in experiment [1], the IC50 turned out to be 25.4 nM.

`Cc1cc(O)cc(-c2nn(C)cc2-c2cc(N3CC(O)C3)nc(-c3cccnc3)n2)c1`: the IC50 in experiment [1] stood at 86.5 nM.

As to `Cc1cc(O)cc(-c2c(-c3cc(NC[C@H](C)O)nc(-c4cccnc4)n3)cnn2C)c1`, the IC50 in experiment [1] was 139 nM.

On to `COc1cc(C)cc(-c2nn(C)cc2-c2cc(NC[C@H](C)O)nc(-c3cccnc3)n2)c1`, for which the IC50 in experiment [1] was determined as 241 nM.

In the case of `Cc1cc(O)cc(-c2c(-c3cc(N4CCOCC4)nc(-c4cccnc4)n3)cnn2C)c1`, the IC50 in experiment [1] was determined as 91.5 nM.

With `COc1cc(C)cc(-c2nn(C)cc2-c2cc(N3CC(O)C3)nc(-c3cccnc3)n2)c1`, the IC50 in experiment [1] came out at 108 nM.

On to `COc1cc(C)cc(-c2nn(C)cc2-c2cc(NCCCCO)nc(-c3cccnc3)n2)c1`, for which, in experiment [1], the IC50 is 63.8 nM.
